{"source": "patent US20190022110A1", "about": "“AQUEOUS BASED CAPSAICINOID FORMULATIONS AND METHODS OF MANUFACTURE AND USE” (VIZURI HEALTH SCIENCES LLC, priority 2012, published 2019)", "key": {"[1]": {"conditions": "cited from earlier work"}, "physchem": {"assay": "physchem", "conditions": "for solubility: aqueous with cosolvent or surfactant or cyclodextrin", "experimental": "The teachings of this application were utilized in solubilizing capsaicin in a high purity PS 80 obtained from Croda Inc.\n• 1. 10 grams of PS 80 are added to a 50 ml “Pyrex” glass vial. • 2. 2 grams of Trans-Capsaicin are added to the PS 80 in Step 1. • 3. The mixture from Step 2 is heated to ˜55° C. to dissolve the Trans-Capsaicin and form the Trans-Capsaicin/PS80 concentrate."}, "peripheral nociceptors": {"test_system": "peripheral nociceptors", "conditions": "cited from earlier work"}, "arthritic knee joints": {"test_system": "arthritic knee joints", "assay": "Clinical study: corticosteroid pretreatment and pain due to intra-articular capsaicin injection", "format": "in vivo, human", "experimental": "This study examined the administration of a corticosteroid as an adjunctive agent prior to the administration of capsaicin to attenuate the burning and stinging effect resulting for the intra-articular injection of capsaicin into the knee joint.\nTests were conducted to evaluate the effectiveness of a corticosteroid injection into a site prior to injection of a capsaicin formulation. Subjects with arthritic knee joints were selected and treated as follows: • The knee joint to be treated was cleaned with Betadine or other suitable antiseptic agent. • A […].\nProcedures and resulting pain level experienced by the injection of subjects injected with a 0.2 mg dose level of the capsaicin formulation as a function of elapsed time are summarized in Tables IX to XV. […] A description of the 6 knees treated with the capsaicin injections follows."}, "[2]": {"conditions": "in vivo; cited from earlier work"}, "[3]": {"conditions": "knee #1, patient #1, Depo-Medrol, no Lidocaine, 0.2 mg capsaicin"}, "[4]": {"conditions": "knee #2, patient #2, Depo-Medrol, Lidocaine, 0.2 mg capsaicin"}, "[5]": {"conditions": "knee #3, patient #3, Depo-Medrol, Lidocaine, 0.2 mg capsaicin"}, "[6]": {"conditions": "knee #4, patient #4 left, Depo-Medrol, gel pack, Lidocaine, 0.2 mg capsaicin"}, "[7]": {"conditions": "knee #5, patient #4 right, no corticosteroid, Lidocaine, 0.2 mg capsaicin"}, "[8]": {"conditions": "knee #6, patient #1 right, Depo-Medrol, cold pack, Lidocaine, 0.2 mg capsaicin"}}}
{"compound": "CCO", "note": "[Ethyl Alcohol]", "values": [{"measurement": "Aqueous Soluble", "setting": "[1]", "result": "miscible"}, {"measurement": "Oil Soluble", "setting": "[1]", "result": "soluble"}]}
{"compound": "COc1cc(CNC(=O)CCCC/C=C/C(C)C)ccc1O", "note": "[Capsaicin]", "values": [{"measurement": "capsaicin concentration achieved in PS 80", "setting": "physchem", "result": 200, "unit": "mg/mL"}, {"measurement": "capsaicin solubility with PEG-400 compared to PS80", "setting": "physchem", "result": "did not achieve the capsaicin solubility levels"}, {"measurement": "supersaturation of Capsaicin/PS 80 solution", "setting": "physchem", "result": "not supersaturated"}, {"measurement": "dissolution of capsaicin without pre-formed concentrate", "setting": "physchem; PS 80 and capsaicin added to water, then heated to ~70° C.-90° C.", "result": "only a fraction of the capsaicin dissolving"}, {"measurement": "solubility", "setting": "physchem; aqueous capsaicin solubility level", "result": 20000, "unit": "µg/mL"}, {"measurement": "solubility", "setting": "physchem; aqueous capsaicin solubility level, 2 ml capsaicin/PS 80 concentrate added to 98 grams of ~70° C. water, cooled to room temperature", "result": 4000, "unit": "µg/mL"}, {"measurement": "solubility", "setting": "physchem; increase of aqueous solubility of capsaicin", "result": "~1000", "unit": "µg/mL"}, {"measurement": "duration of subsequent mild pain", "setting": "peripheral nociceptors; injectable capsaicin formulations, after the intense B&S pain", "result": "1 to 2", "unit": "h"}, {"measurement": "duration of intense burning and stinging (B&S) pain", "setting": "peripheral nociceptors; injectable capsaicin formulations", "result": "up to 1 hour"}, {"measurement": "persistence of spontaneous burning pain and hyperalgesia", "setting": "peripheral nociceptors; upon capsaicin injection in clinical trials", "result": "up to 60 minutes"}, {"measurement": "pain status of treated knees as of the date of filing", "setting": "arthritic knee joints; all patients, 0.2 mg capsaicin intra-articular", "result": "remain pain free"}, {"measurement": "duration pain free", "setting": "arthritic knee joints; in one case", "result": "over 3 weeks"}, {"measurement": "duration of extreme pain following capsaicin injection", "setting": "arthritic knee joints; [3]", "result": "about 1 hour"}, {"measurement": "relief of arthritic pain symptoms", "setting": "arthritic knee joints; [3]", "result": "significant relief of their arthritic pain symptoms"}, {"measurement": "time of procedure until relief of arthritic pain symptoms", "setting": "arthritic knee joints; [3]", "result": "~80", "unit": "min"}, {"measurement": "relief of arthritic pain symptoms", "setting": "arthritic knee joints; [4]", "result": "complete relief of their osteoarthritic pain symptoms"}, {"measurement": "time until procedure completed and pain relief", "setting": "arthritic knee joints; [4]", "result": "about 30 minutes"}, {"measurement": "relief of arthritic pain symptoms", "setting": "arthritic knee joints; [5]", "result": "complete relief for their painful arthritic symptoms"}, {"measurement": "time until procedure concluded and pain relief", "setting": "arthritic knee joints; [5]", "result": "about 23 minutes"}, {"measurement": "relief of arthritic pain symptoms", "setting": "arthritic knee joints; [6]", "result": "complete relief of their painful severe osteoarthritis pain"}, {"measurement": "time pain level remained at a mild level before complete relief", "setting": "arthritic knee joints; [6]", "result": "about 13 minutes"}, {"measurement": "relief of arthritic pain symptoms", "setting": "arthritic knee joints; [7]", "result": "alleviated their painful arthritic symptoms"}, {"measurement": "time until arthritic symptoms alleviated", "setting": "arthritic knee joints; [7]", "result": "~25", "unit": "min"}, {"measurement": "relief of arthritic pain symptoms", "setting": "arthritic knee joints; [8]", "result": "complete relief of their painful arthritic symptoms"}, {"measurement": "time until procedure concluded and pain relief", "setting": "arthritic knee joints; [8]", "result": "about 17 minutes"}, {"measurement": "Aqueous Soluble", "setting": "[1]", "result": "insoluble"}, {"measurement": "Oil Soluble", "setting": "[1]", "result": "soluble"}]}
{"compound": "Polyethylene glycol [PEG]", "values": [{"measurement": "systemic absorption", "setting": "[2]", "result": "less than 0.5%"}]}
{"compound": "CCCNC(C)C(=O)Nc1ccccc1C", "note": "(stereo not drawn) [Prilocaine]", "values": [{"measurement": "Aqueous Soluble", "setting": "[1]", "result": "sparingly"}, {"measurement": "Oil Soluble", "setting": "[1]", "result": "soluble"}]}
{"compound": "CC1CCC(C(C)C)C(O)C1", "note": "(stereo not drawn) [Menthol]", "values": [{"measurement": "Aqueous Soluble", "setting": "[1]", "result": "slightly"}, {"measurement": "Oil Soluble", "setting": "[1]", "result": "soluble"}]}
{"compound": "CCOC(=O)c1ccc(N)cc1", "note": "[Benzocaine]", "values": [{"measurement": "Aqueous Soluble", "setting": "[1]", "result": "sparingly"}, {"measurement": "Oil Soluble", "setting": "[1]", "result": "soluble"}]}
